In the OligoGym collection:
“And” between values parts separate entries of the source, which are not always exact repeats. Identical values can stand only once. After the bases stand the sugars from the 5' end (letter, count) and the backbone: PS all phosphorothioate, else s phosphorothioate and o phosphodiester by linkage. Methylation of C is not given here. e = 2'-O-(2-methoxyethyl) (MOE); d = 2'-deoxy (DNA)

Biological target: DGAT2
Details: ASO

**Q.** “AGGATGCAGGGTTACCCAGC (sugars e5 d10 e5, PS)” was tested. Which target mRNA inhibition (HepG2, 2.5 µM) did it give?
**A.** The target mRNA inhibition was 81%.

**Q.** And the target mRNA inhibition (HepG2, 10 µM)?
**A.** The target mRNA inhibition was 71%.

**Q.** For “AGGCAAAGTAACATACCTGC (sugars e5 d10 e5, PS)”, which target mRNA inhibition (HepG2, 2.5 µM) is on record?
**A.** Its target mRNA inhibition is 71% and 74%.

**Q.** What about the target mRNA inhibition (HepG2, 10 µM) of the same sequence?
**A.** The target mRNA inhibition was 94% and 91%.

**Q.** “AGGCATGGAGCTCAGAGACT (sugars e5 d10 e5, PS)” was tested. Which target mRNA inhibition (HepG2, 0.12 µM) did it give?
**A.** The target mRNA inhibition was 69% and 83%.

**Q.** What about the target mRNA inhibition (HepG2, 2.5 µM) of the same sequence?
**A.** Its target mRNA inhibition is 39%.

**Q.** What about the target mRNA inhibition (HepG2, 10 µM) of the same sequence?
**A.** The target mRNA inhibition was 84%.

**Q.** And the target mRNA inhibition (HepG2, 20 µM)?
**A.** The target mRNA inhibition was 51%.

**Q.** “AGGGCCAGTTTCACAAAGCC (sugars e5 d10 e5, PS)” was tested. Which target mRNA inhibition (HepG2, 0.12 µM) did it give?
**A.** Its target mRNA inhibition is 33%.

**Q.** With “AGGGTTCATGGATCCCC (sugars e3 d10 e4, PS)” as the sequence, how does the target mRNA inhibition (HepG2, 2.5 µM) read?
**A.** The target mRNA inhibition was 46%.

**Q.** And the target mRNA inhibition (HepG2, 10 µM)?
**A.** The target mRNA inhibition was 76%.

**Q.** How did the target mRNA inhibition (HepG2, 0.12 µM) turn out when “AGGTAAGGCCGTATGCCTGG (sugars e2 d13 e5, PS)” was run?
**A.** The target mRNA inhibition was 63%.

**Q.** What does the source list for “AGGTAGAGTTCTATTGCTTC (sugars e5 d10 e5, PS)”?
**A.** target mRNA inhibition (HepG2, 2.5 µM): 81%; target mRNA inhibition (HepG2, 10 µM): 88% and 92%

**Q.** How did the target mRNA inhibition (HepG2, 0.12 µM) turn out when “AGGTTGTGTGTCTTCACCAG (sugars e2 d13 e5, PS)” was run?
**A.** The target mRNA inhibition was 61%.

**Q.** How did the target mRNA inhibition (HepG2, 0.12 µM) turn out when “AGTAGGGCACCAGCCCCCAG (sugars e5 d10 e5, PS)” was run?
**A.** The target mRNA inhibition was 0%.

**Q.** Which results are given for “AGTCAAACCTAGGTTCAGAC (sugars e5 d10 e5, PS)”?
**A.** target mRNA inhibition (HepG2, 2.5 µM): 81%; target mRNA inhibition (HepG2, 10 µM): 55%

**Q.** “AGTTTCGGACCCACTGTGAC (sugars e3 d14 e3, PS)” was tested. Which target mRNA inhibition (HepG2, 0.12 µM) did it give?
**A.** Its target mRNA inhibition is 60%.

**Q.** How did the target mRNA inhibition (HepG2, 0.12 µM) turn out when “ATACCTCCAGACATCAGGTA (sugars e5 d10 e5, PS)” was run?
**A.** Its target mRNA inhibition is 50%.

**Q.** How did the target mRNA inhibition (HepG2, 0.12 µM) turn out when “ATAGCATTGCCACTCCCATT (sugars e2 d13 e5, PS)” was run?
**A.** The target mRNA inhibition was 57%.

**Q.** “ATAGCATTGCCACTCCCATT (sugars e5 d10 e5, PS)” was tested. Which target mRNA inhibition (HepG2, 0.12 µM) did it give?
**A.** The target mRNA inhibition was 57%.

**Q.** How did the target mRNA inhibition (HepG2, 0.12 µM) turn out when “ATATAGTTCCTGGTGGTCAG (sugars e5 d10 e5, PS)” was run?
**A.** Its target mRNA inhibition is 53%.

**Q.** “ATCACAATATATGGGCAAGC (sugars e5 d10 e5, PS)” was tested. Which target mRNA inhibition (HepG2, 2.5 µM) did it give?
**A.** Its target mRNA inhibition is 83% and 86%.

**Q.** What about the target mRNA inhibition (HepG2, 10 µM) of the same sequence?
**A.** The target mRNA inhibition was 92% and 94%.

**Q.** What does the source list for “ATCAGCTATAGAATCAGACA (sugars e5 d10 e5, PS)”?
**A.** target mRNA inhibition (HepG2, 2.5 µM): 16%; target mRNA inhibition (HepG2, 10 µM): 75%

**Q.** Which target mRNA inhibition (HepG2, 0.12 µM) does the source give for “ATCCAAAGATATAGTTCCTG (sugars e5 d10 e5, PS)” here?
**A.** The target mRNA inhibition was 39%.

**Q.** “ATCCAATGCACCTTGTATTA (sugars e5 d10 e5, PS)” was tested. Which target mRNA inhibition (HepG2, 2.5 µM) did it give?
**A.** The target mRNA inhibition was 57%.

**Q.** And the target mRNA inhibition (HepG2, 10 µM)?
**A.** The target mRNA inhibition was 93%.

**Q.** For “ATCCATGTCAGAGAGGCTCA (sugars e5 d10 e5, PS)”, which target mRNA inhibition (HepG2, 2.5 µM) is on record?
**A.** Its target mRNA inhibition is 66%.

**Q.** What about the target mRNA inhibition (HepG2, 10 µM) of the same sequence?
**A.** The target mRNA inhibition was 88%.

**Q.** How did the target mRNA inhibition (HepG2, 2.5 µM) turn out when “ATCCTGCCAGAGTTATCCTC (sugars e5 d10 e5, PS)” was run?
**A.** Its target mRNA inhibition is 86%.

**Q.** And the target mRNA inhibition (HepG2, 10 µM)?
**A.** The target mRNA inhibition was 77%.

**Q.** How did the target mRNA inhibition (HepG2, 2.5 µM) turn out when “ATGCCCTTGCTGTAGGACCC (sugars e5 d10 e5, PS)” was run?
**A.** Its target mRNA inhibition is 79% and 73%.

**Q.** What about the target mRNA inhibition (HepG2, 10 µM) of the same sequence?
**A.** The target mRNA inhibition was 90%.

**Q.** With “ATGGAGCTCAGAGACTCAGC (sugars e3 d14 e3, PS)” as the sequence, how does the target mRNA inhibition (HepG2, 0.12 µM) read?
**A.** Its target mRNA inhibition is 71%.

**Q.** With “ATGGAGCTCAGAGACTCAGC (sugars e5 d10 e5, PS)” as the sequence, how does the target mRNA inhibition (HepG2, 0.12 µM) read?
**A.** The target mRNA inhibition was 78%.

**Q.** How did the target mRNA inhibition (HepG2, 0.12 µM) turn out when “ATGGGAAAGTAGTCTCGAAA (sugars e5 d10 e5, PS)” was run?
**A.** The target mRNA inhibition was 0%.

**Q.** Which target mRNA inhibition (HepG2, 0.12 µM) does the source give for “ATTTCTTTTAAATAACCCAC (sugars e5 d10 e5, PS)” here?
**A.** Its target mRNA inhibition is 1%.

**Q.** With “CAAGAGGTAAGGCCAAGGAA (sugars e5 d10 e5, PS)” as the sequence, how does the target mRNA inhibition (HepG2, 2.5 µM) read?
**A.** Its target mRNA inhibition is 75%.

**Q.** What about the target mRNA inhibition (HepG2, 10 µM) of the same sequence?
**A.** Its target mRNA inhibition is 90%.

**Q.** Which target mRNA inhibition (HepG2, 2.5 µM) does the source give for “CACAGCGATGAGCCAGC (sugars e3 d10 e4, PS)” here?
**A.** Its target mRNA inhibition is 50% and 31%.

**Q.** For “CACAGTTAAAGTGTGGTACA (sugars e5 d10 e5, PS)”, which target mRNA inhibition (HepG2, 2.5 µM) is on record?
**A.** The target mRNA inhibition was 52%.

**Q.** What about the target mRNA inhibition (HepG2, 10 µM) of the same sequence?
**A.** The target mRNA inhibition was 88%.

**Q.** “CACCAGCTGGATGGGAAAGT (sugars e5 d10 e5, PS)” was tested. Which target mRNA inhibition (HepG2, 0.12 µM) did it give?
**A.** The target mRNA inhibition was 31%.

**Q.** With “CACCTGTTACTACATGTCTA (sugars e5 d10 e5, PS)” as the sequence, how does the target mRNA inhibition (HepG2, 2.5 µM) read?
**A.** Its target mRNA inhibition is 68%.

**Q.** And the target mRNA inhibition (HepG2, 10 µM)?
**A.** The target mRNA inhibition was 93%.

**Q.** Which target mRNA inhibition (HepG2, 2.5 µM) does the source give for “CACTCTGTGATGCTCTGGAG (sugars e5 d10 e5, PS)” here?
**A.** The target mRNA inhibition was 60%.

**Q.** What about the target mRNA inhibition (HepG2, 10 µM) of the same sequence?
**A.** Its target mRNA inhibition is 84%.

**Q.** For “CAGAAGAGCAAAGGCTTGCT (sugars e5 d10 e5, PS)”, which target mRNA inhibition (HepG2, 2.5 µM) is on record?
**A.** The target mRNA inhibition was 50%.

**Q.** And the target mRNA inhibition (HepG2, 10 µM)?
**A.** Its target mRNA inhibition is 94%.

**Q.** With “CAGAAGGCACCCAGGCCCAT (sugars e5 d10 e5, PS)” as the sequence, how does the target mRNA inhibition (HepG2, 0.12 µM) read?
**A.** The target mRNA inhibition was 33%.

**Q.** How did the target mRNA inhibition (HepG2, 0.12 µM) turn out when “CAGCAGGTTGTGTGTCTTCA (sugars e3 d14 e3, PS)” was run?
**A.** The target mRNA inhibition was 47%.

**Q.** With “CAGCCTGGACAAGTCCTGCC (sugars e3 d14 e3, PS)” as the sequence, how does the target mRNA inhibition (HepG2, 0.12 µM) read?
**A.** The target mRNA inhibition was 72%.

**Q.** Which results are given for “CAGCCTGGACAAGTCCTGCC (sugars e5 d10 e5, PS)”?
**A.** target mRNA inhibition (HepG2, 0.12 µM): 84%; target mRNA inhibition (HepG2, 10 µM): 81% and 90% and 88%; target mRNA inhibition (HepG2, 20 µM): 86%

**Q.** For “CAGGACCCCGGAGTAGGCGG (sugars e2 d13 e5, PS)”, which target mRNA inhibition (HepG2, 0.12 µM) is on record?
**A.** The target mRNA inhibition was 76%.

**Q.** With “CAGGACCCCGGAGTAGGCGG (sugars e3 d14 e3, PS)” as the sequence, how does the target mRNA inhibition (HepG2, 0.12 µM) read?
**A.** The target mRNA inhibition was 53%.

**Q.** “CAGGACTTGGTACCTGATTC (sugars e5 d10 e5, PS)” was tested. Which target mRNA inhibition (HepG2, 0.12 µM) did it give?
**A.** The target mRNA inhibition was 35%.

**Q.** How did the target mRNA inhibition (HepG2, 0.12 µM) turn out when “CAGGCATGGAGCTCAGAGAC (sugars e2 d13 e5, PS)” was run?
**A.** Its target mRNA inhibition is 70%.

**Q.** Which target mRNA inhibition (HepG2, 0.12 µM) does the source give for “CAGGCATGGAGCTCAGAGAC (sugars e3 d14 e3, PS)” here?
**A.** The target mRNA inhibition was 76%.

**Q.** For “CAGGCCACTCCCAGTACAAG (sugars e5 d10 e5, PS)”, which target mRNA inhibition (HepG2, 0.12 µM) is on record?
**A.** The target mRNA inhibition was 1%.

**Q.** For “CAGGGCCTCCATGTACATGG (sugars e5 d10 e5, PS)”, which target mRNA inhibition (HepG2, 0.12 µM) is on record?
**A.** Its target mRNA inhibition is 37%.

**Q.** With “CAGGGTCTGCCACTCTCTAC (sugars e5 d10 e5, PS)” as the sequence, how does the target mRNA inhibition (HepG2, 2.5 µM) read?
**A.** Its target mRNA inhibition is 56%.

**Q.** And the target mRNA inhibition (HepG2, 10 µM)?
**A.** Its target mRNA inhibition is 85%.

**Q.** Which target mRNA inhibition (HepG2, 2.5 µM) does the source give for “CAGGTCTATGCTGCAGTCAT (sugars e5 d10 e5, PS)” here?
**A.** Its target mRNA inhibition is 53% and 45%.

**Q.** What about the target mRNA inhibition (HepG2, 10 µM) of the same sequence?
**A.** Its target mRNA inhibition is 89% and 82%.

**Q.** With “CATAGGCCAGGAGGAAGAGT (sugars e5 d10 e5, PS)” as the sequence, how does the target mRNA inhibition (HepG2, 0.12 µM) read?
**A.** The target mRNA inhibition was 35%.

**Q.** “CATCACATGCTTATCCTTGA (sugars e5 d10 e5, PS)” was tested. Which target mRNA inhibition (HepG2, 0.12 µM) did it give?
**A.** Its target mRNA inhibition is 41%.
